# Measured values from article PMC9150124, “Design of a Potent, Selective, and Brain-Penetrant Inhibitor of Wnt-Deactivating Enzyme Notum by Optimization of a Crystallographic Fragment Hit” (Journal of Medicinal Chemistry, 2022).
# Key:
# Assay in all cases: SelectScreen kinase profiling, SSBK LanthaScreen Binding SP Technology
# [1] = target: kinase named in conditions (Homo sapiens, UniProt Q96RR4); settings: CAMKK2 (CaMKK beta), 10 μM
# Experimental: (§1) Kinase selectivity screening was performed by Thermo Fisher Scientific (Paisley, U.K.) in their SelectScreen Biochemical Kinase Profiling Service. Assay information and data are presented in the Supporting Information.
# (§2) Kinase selectivity screening was performed by ThermoFisher Scientific (Paisley, U.K.) in their SelectScreenTM
# (§3) Biochemical Kinase Profiling service .
# (§4) Illustration reproduced courtesy of Cell Signaling technology, Inc.
# (§5) (B) Illustration of phylogenetic tree of kinases screened.
# [2] = target: kinase named in conditions (Homo sapiens, UniProt P45984); settings: MAPK9 (JNK2), 10 μM
# Experimental: as §1, §2, §3, §4, §5
# [3] = target: kinase named in conditions (Homo sapiens, UniProt O14976); settings: GAK, 10 μM
# kinase named in conditions (Homo sapiens, UniProt O14976), sequence (O14976 whole entry): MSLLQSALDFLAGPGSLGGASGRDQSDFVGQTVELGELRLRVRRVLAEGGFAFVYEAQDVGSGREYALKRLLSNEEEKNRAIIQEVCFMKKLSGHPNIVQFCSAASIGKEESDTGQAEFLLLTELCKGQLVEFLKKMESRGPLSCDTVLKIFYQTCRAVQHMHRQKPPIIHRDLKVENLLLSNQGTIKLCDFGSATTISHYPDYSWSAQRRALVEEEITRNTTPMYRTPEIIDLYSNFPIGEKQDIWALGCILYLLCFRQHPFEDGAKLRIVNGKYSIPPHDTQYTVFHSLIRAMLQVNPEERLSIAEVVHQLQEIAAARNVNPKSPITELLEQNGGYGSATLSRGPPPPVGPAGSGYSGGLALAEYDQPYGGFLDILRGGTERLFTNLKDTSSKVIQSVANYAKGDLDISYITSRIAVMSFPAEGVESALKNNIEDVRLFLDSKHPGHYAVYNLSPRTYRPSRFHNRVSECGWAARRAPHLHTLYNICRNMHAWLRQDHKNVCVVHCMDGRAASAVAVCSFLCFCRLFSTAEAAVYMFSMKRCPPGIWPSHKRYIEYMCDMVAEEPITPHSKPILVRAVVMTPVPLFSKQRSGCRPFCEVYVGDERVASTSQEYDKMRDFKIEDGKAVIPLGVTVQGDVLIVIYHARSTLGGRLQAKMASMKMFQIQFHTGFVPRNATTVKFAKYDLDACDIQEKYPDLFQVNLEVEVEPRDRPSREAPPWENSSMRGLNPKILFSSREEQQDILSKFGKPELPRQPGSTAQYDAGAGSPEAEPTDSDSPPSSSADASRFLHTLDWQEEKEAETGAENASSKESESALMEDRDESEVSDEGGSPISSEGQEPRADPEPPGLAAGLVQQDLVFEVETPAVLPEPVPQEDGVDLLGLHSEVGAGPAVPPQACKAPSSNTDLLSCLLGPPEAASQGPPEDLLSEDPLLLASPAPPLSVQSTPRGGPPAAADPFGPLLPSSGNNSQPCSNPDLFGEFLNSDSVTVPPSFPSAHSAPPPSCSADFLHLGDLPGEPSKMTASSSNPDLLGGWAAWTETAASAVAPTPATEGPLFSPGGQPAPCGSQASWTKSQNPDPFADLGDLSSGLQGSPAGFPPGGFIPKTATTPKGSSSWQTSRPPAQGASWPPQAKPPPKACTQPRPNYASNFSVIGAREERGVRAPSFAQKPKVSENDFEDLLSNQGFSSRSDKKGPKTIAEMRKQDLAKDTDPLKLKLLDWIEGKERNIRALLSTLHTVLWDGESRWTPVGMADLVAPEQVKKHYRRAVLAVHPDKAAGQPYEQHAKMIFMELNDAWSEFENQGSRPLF
# Experimental: as §1, §2, §3, §4, §5
# [4] = target: kinase named in conditions (Homo sapiens, UniProt P19525); settings: EIF2AK2 (PKR), 10 μM
# Experimental: as §1, §2, §3, §4, §5
# [5] = target: kinase named in conditions (Homo sapiens, UniProt Q2M2I8); settings: AAK1, 10 μM
# Experimental: as §1, §2, §3, §4, §5
# [6] = target: kinase named in conditions (Homo sapiens, UniProt Q8TD08); settings: MAPK15 (ERK7), 10 μM
# Experimental: as §1, §2, §3, §4, §5
# [7] = target: kinase named in conditions (Homo sapiens, UniProt Q9UKE5); settings: TNIK, 10 μM
# Experimental: as §1, §2, §3, §4, §5
# [8] = target: kinase named in conditions (Homo sapiens, UniProt Q16584); settings: MAP3K11 (MLK3), 10 μM
# Experimental: as §1, §2, §3, §4, §5
# [9] = target: kinase named in conditions (Homo sapiens, UniProt Q13131); settings: 10 μM
# kinase named in conditions (Homo sapiens, UniProt Q13131), sequence (Q13131 whole entry): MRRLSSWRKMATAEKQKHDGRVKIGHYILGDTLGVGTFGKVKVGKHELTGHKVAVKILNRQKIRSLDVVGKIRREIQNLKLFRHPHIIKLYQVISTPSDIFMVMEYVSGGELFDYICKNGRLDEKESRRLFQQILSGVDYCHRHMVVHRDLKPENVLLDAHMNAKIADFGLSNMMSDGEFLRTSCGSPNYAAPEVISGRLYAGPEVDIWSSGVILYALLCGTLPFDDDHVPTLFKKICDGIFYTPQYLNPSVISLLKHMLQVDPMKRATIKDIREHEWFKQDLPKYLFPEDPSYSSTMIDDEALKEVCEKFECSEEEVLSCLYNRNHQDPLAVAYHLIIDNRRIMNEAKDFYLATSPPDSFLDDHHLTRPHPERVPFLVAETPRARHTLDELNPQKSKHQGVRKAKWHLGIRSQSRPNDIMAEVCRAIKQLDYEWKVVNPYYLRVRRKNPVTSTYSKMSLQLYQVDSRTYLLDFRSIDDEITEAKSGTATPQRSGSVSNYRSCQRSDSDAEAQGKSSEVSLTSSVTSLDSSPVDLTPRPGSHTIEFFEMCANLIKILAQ
# Experimental: as §1, §2, §3, §4, §5
# [10] = target: kinase named in conditions (Homo sapiens, UniProt Q9NY57); settings: STK32B (YANK2), 10 μM
# Experimental: as §1, §2, §3, §4, §5
# [11] = target: kinase named in conditions (Homo sapiens, UniProt Q12866, A708S); settings: MERTK (cMER) A708S, 10 μM
# Experimental: as §1, §2, §3, §4, §5
# [12] = target: kinase named in conditions (Homo sapiens, UniProt Q8IVH8); settings: MAP4K3 (GLK), 10 μM
# Experimental: as §1, §2, §3, §4, §5
# [13] = target: kinase named in conditions (Homo sapiens, UniProt P36507); settings: MAP2K2 (MEK2), 10 μM
# Experimental: as §1, §2, §3, §4, §5
# [14] = target: kinase named in conditions (Homo sapiens, UniProt P53779); settings: MAPK10 (JNK3), 10 μM
# Experimental: as §1, §2, §3, §4, §5
# [15] = target: kinase named in conditions (Homo sapiens, UniProt Q86SG6); settings: NEK8, 10 μM
# kinase named in conditions (Homo sapiens, UniProt Q86SG6), sequence (Q86SG6 whole entry): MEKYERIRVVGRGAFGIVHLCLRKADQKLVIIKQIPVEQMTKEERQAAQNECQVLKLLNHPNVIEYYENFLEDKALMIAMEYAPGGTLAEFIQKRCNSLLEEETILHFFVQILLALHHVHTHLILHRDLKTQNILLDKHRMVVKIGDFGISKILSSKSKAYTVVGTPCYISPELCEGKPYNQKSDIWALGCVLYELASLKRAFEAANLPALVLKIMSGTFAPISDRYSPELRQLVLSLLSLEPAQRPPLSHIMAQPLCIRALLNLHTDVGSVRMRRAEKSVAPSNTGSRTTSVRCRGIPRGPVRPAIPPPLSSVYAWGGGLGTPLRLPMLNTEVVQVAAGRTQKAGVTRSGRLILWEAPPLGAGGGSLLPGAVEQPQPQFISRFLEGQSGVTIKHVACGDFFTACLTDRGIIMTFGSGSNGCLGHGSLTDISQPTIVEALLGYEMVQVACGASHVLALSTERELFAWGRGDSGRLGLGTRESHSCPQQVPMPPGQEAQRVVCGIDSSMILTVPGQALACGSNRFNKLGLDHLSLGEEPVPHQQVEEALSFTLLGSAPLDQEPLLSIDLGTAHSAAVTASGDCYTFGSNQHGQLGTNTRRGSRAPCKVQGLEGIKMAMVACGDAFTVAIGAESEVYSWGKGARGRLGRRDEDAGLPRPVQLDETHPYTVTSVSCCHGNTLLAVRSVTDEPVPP
# Experimental: as §1, §2, §3, §4, §5
# [16] = target: kinase named in conditions (Homo sapiens, UniProt P45985); settings: MAP2K4 (MEK4), 10 μM
# Experimental: as §1, §2, §3, §4, §5
# [17] = target: kinase named in conditions (Homo sapiens, UniProt Q9UM73, R1275Q); settings: ALK R1275Q, 10 μM
# Experimental: as §1, §2, §3, §4, §5
# [18] = target: kinase named in conditions (Homo sapiens, UniProt P29320); settings: EPHA3, 10 μM
# Experimental: as §1, §2, §3, §4, §5
# [19] = target: kinase named in conditions (Homo sapiens, UniProt P07949, G691S); settings: RET G691S, 10 μM
# Experimental: as §1, §2, §3, §4, §5
# [20] = target: kinase named in conditions (Homo sapiens, UniProt P37023); settings: ACVRL1 (ALK1), 10 μM
# Experimental: as §1, §2, §3, §4, §5
# [21] = target: kinase named in conditions (Homo sapiens, UniProt Q9UEW8); settings: STK39 (STLK3), 10 μM
# Experimental: as §1, §2, §3, §4, §5
# [22] = target: kinase named in conditions (Homo sapiens, UniProt P42680); settings: TEC, 10 μM
# Experimental: as §1, §2, §3, §4, §5
# [23] = target: kinase named in conditions (Homo sapiens, UniProt Q76MJ5); settings: ERN2, 10 μM
# Experimental: as §1, §2, §3, §4, §5
# [24] = target: kinase named in conditions (Homo sapiens, UniProt Q6PHR2); settings: ULK3, 10 μM
# kinase named in conditions (Homo sapiens, UniProt Q6PHR2), sequence (Q6PHR2 whole entry): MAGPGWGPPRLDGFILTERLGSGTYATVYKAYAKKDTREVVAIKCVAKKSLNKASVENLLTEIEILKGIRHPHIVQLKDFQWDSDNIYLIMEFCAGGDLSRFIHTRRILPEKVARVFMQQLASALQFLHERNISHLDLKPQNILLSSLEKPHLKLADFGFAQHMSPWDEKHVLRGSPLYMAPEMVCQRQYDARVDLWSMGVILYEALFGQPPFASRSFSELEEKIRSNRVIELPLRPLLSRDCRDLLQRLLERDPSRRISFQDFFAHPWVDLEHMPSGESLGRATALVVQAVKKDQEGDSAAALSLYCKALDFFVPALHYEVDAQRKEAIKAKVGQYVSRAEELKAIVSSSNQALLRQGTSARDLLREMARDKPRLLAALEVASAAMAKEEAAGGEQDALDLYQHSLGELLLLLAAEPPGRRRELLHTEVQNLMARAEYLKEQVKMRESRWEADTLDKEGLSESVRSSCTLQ
# Experimental: as §1, §2, §3, §4, §5
# [25] = target: kinase named in conditions (Homo sapiens, UniProt P30530, R499C); settings: AXL R499C, 10 μM
# Experimental: as §1, §2, §3, §4, §5
# [26] = target: kinase named in conditions (Homo sapiens, UniProt Q99759); settings: MAP3K3 (MEKK3), 10 μM
# Experimental: as §1, §2, §3, §4, §5
# [27] = target: kinase named in conditions (Homo sapiens, UniProt Q86UX6); settings: STK32C (YANK3), 10 μM
# Experimental: as §1, §2, §3, §4, §5
# [28] = target: kinase named in conditions (Homo sapiens, UniProt Q8NFD2); settings: ANKK1, 10 μM
# Experimental: as §1, §2, §3, §4, §5
# [29] = target: kinase named in conditions (Homo sapiens, UniProt O94768); settings: STK17B (DRAK2), 10 μM
# kinase named in conditions (Homo sapiens, UniProt O94768), sequence (O94768 whole entry): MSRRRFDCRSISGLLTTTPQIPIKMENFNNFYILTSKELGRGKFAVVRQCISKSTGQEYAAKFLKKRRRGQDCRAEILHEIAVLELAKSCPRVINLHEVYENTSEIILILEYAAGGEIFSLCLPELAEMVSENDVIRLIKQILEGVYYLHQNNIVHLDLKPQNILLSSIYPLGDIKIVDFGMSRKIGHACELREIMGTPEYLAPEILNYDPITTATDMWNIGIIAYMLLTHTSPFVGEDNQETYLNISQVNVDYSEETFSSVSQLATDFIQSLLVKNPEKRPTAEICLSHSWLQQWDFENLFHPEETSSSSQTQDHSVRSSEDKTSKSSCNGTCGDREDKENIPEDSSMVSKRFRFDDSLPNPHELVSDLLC
# Experimental: as §1, §2, §3, §4, §5
# [30] = target: kinase named in conditions (Homo sapiens, UniProt O14936); settings: CASK, 10 μM
# Experimental: as §1, §2, §3, §4, §5
# [31] = target: kinase named in conditions (Homo sapiens, UniProt Q13705); settings: ACVR2B, 10 μM
# Experimental: as §1, §2, §3, §4, §5
# [32] = target: kinase named in conditions (Homo sapiens, UniProt P10721, T670I/V559D); settings: KIT V559D T670I, 10 μM
# kinase named in conditions (Homo sapiens, UniProt P10721, T670I/V559D), sequence (P10721 26-976 V559D/T670I): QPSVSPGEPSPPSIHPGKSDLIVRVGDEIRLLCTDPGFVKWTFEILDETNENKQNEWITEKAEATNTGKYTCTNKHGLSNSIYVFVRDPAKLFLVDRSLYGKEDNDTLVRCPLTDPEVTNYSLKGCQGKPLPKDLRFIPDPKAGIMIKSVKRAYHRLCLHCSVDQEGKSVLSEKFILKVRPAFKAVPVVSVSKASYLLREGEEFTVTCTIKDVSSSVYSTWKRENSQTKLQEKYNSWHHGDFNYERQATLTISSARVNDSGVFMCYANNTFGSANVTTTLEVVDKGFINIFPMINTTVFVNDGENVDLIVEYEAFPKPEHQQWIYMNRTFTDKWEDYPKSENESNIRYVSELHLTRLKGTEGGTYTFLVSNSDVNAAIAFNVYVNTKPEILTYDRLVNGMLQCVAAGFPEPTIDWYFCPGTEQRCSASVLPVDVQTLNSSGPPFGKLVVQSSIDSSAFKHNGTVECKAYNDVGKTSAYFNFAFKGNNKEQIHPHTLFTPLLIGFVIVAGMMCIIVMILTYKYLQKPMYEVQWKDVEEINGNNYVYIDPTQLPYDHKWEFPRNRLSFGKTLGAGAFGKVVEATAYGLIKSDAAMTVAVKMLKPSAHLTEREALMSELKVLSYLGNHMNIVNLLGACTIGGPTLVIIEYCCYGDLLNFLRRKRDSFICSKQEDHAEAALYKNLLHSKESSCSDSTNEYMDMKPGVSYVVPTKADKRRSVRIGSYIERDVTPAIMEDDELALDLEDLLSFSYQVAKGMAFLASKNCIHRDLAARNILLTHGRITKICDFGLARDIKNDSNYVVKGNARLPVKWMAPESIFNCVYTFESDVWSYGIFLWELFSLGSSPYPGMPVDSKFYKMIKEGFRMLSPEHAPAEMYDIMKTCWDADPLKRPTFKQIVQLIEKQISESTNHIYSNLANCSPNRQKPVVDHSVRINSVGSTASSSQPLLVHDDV
# Experimental: as §1, §2, §3, §4, §5
# [33] = target: kinase named in conditions (Homo sapiens, UniProt Q9UPZ9); settings: ICK, 10 μM
# Experimental: as §1, §2, §3, §4, §5
# [34] = target: kinase named in conditions (Homo sapiens, UniProt Q99640); settings: PKMYT1, 10 μM
# Experimental: as §1, §2, §3, §4, §5
# kinase named in conditions (Homo sapiens, UniProt Q96RR4), sequence (Q96RR4 whole entry): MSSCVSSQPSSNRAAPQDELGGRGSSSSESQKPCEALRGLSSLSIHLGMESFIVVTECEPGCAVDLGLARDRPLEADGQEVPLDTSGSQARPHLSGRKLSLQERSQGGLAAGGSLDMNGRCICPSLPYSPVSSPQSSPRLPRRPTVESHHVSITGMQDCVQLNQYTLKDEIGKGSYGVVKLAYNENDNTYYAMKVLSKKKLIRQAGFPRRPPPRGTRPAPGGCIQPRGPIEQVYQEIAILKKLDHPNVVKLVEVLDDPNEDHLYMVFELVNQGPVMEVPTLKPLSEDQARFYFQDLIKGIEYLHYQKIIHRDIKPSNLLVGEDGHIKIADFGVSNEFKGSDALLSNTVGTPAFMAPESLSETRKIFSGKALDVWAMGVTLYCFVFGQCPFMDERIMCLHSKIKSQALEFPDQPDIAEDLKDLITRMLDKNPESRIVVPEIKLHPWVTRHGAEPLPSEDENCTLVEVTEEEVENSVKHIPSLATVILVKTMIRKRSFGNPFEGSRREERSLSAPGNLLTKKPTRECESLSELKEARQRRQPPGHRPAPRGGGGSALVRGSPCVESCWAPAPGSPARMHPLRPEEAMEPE
smiles,measurement,setting,value
"FC(F)(F)c1c(Cl)ccc(-n2ccnn2)c1Cl [8l, 1-(2,4-Dichloro-3-(trifluoromethyl)phenyl)-1H-1,2,3-triazole]",inhibition at 10 µM,[1],-1%
same,inhibition at 10 µM,[2],-5%
same,inhibition at 10 µM,[3],17%
same,inhibition at 10 µM,[4],6%
same,inhibition at 10 µM,[5],1%
same,inhibition at 10 µM,[6],1%
same,inhibition at 10 µM,[7],0%
same,inhibition at 10 µM,[8],3%
same,inhibition at 10 µM,[9]; AMPK (A1/B1/G2),-13%
same,inhibition at 10 µM,[9]; AMPK (A1/B1/G3),-4%
same,inhibition at 10 µM,[9]; AMPK (A1/B2/G1),6%
same,inhibition at 10 µM,[10],12%
same,inhibition at 10 µM,[11],-3%
same,inhibition at 10 µM,[12],6%
same,inhibition at 10 µM,[13],5%
same,inhibition at 10 µM,[14],-1%
same,inhibition at 10 µM,[15],2%
same,inhibition at 10 µM,[16],-2%
same,inhibition at 10 µM,[17],-2%
same,inhibition at 10 µM,[18],7%
same,inhibition at 10 µM,[19],-8%
same,inhibition at 10 µM,[20],12%
same,inhibition at 10 µM,[21],13%
same,inhibition at 10 µM,[22],0%
same,inhibition at 10 µM,[23],9%
same,inhibition at 10 µM,[24],-4%
same,inhibition at 10 µM,[25],5%
same,inhibition at 10 µM,[26],-14%
same,inhibition at 10 µM,[27],8%
same,inhibition at 10 µM,[28],-4%
same,inhibition at 10 µM,[29],14%
same,inhibition at 10 µM,[30],18%
same,inhibition at 10 µM,[31],1%
same,inhibition at 10 µM,[32],-3%
same,inhibition at 10 µM,[33],-6%
same,inhibition at 10 µM,[34],0%
